Counter-ions that a name gives are not always drawn.

The target of the first assay is cynomolgus monkey STING protein (Macaca fascicularis, UniProt A0A2R3XZA6). The assay can be described thus: Luciferase reporter assay, cynomolgus monkey STING overexpressed in HEK293T cells. Type of assay: cell-based. The following applies: cynomolgus monkey STING overexpressed in HEK293T cells; read-out: Cynomolgus monkey STING activity (EC50 range). The protocol: 5×10^5 clonally selected HEK293T-hSTING-Luciferase cells were seeded in 384-well plates in growth medium and stimulated with novel compounds. After 20 hr of stimulation supernatant were removed and secretary reporter gene activity were measured using the Quanti-Luc detection system (Invivogen) on a Spectramax i3X luminometer.
Chain of cynomolgus monkey STING protein (A0A2R3XZA6 entry or part of it): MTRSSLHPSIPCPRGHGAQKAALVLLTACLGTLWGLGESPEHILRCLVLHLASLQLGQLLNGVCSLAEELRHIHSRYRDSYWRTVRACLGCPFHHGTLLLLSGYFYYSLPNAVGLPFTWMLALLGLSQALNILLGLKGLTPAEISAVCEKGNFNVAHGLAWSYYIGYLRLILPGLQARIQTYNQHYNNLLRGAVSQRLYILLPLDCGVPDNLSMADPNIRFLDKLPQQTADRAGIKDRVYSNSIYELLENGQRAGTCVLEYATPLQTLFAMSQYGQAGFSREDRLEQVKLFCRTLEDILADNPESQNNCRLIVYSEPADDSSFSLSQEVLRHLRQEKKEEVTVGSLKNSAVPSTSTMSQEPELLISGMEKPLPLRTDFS
In the tables below, EC50 value ranges for exemplary compounds are given.
Selected compounds were further tested against cynomolgus monkey STING protein overexpressed in HEK293T cells.
As to `COc1cc(F)c(CN2C(=O)N(C)[C@@H](C)c3ccc(C(=O)NCc4c(F)cc(F)cc4F)cc32)c(F)c1` [Example 79, (S)-1-(2,6-Difluoro-4-methoxybenzyl)-3,4-dimethyl-2-oxo-N-(2,4,6-trifluorobenzyl)-1,2,3,4-tetrahydroquinazoline-7-carboxamide], the EC50 is less than 1000 nM.

A further assay deals with hSTING(R232) (Homo sapiens, UniProt Q86WV6, H232R). In words: Luciferase reporter assay in HEK293T-hSTING-Luciferase cells, R232 (wild type) human STING. Conditions: 20 hr stimulation, read-out: R232 human activity (EC50 range). It is filed as cell-based. Summed up: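 After 20 hr compound stimulation of 5×10^5 cells, secreted luciferase in the supernatant was measured by luminescence; values are fold-induction over baseline and EC50. The line is a clonal HEK293T stably carrying a STING plasmid (pUNO-1) and a luciferase reporter under five tandem ISREs fused to an ISG54 promoter.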
Chain of hSTING(R232) (Q86WV6 whole entry H232R, the tested form may be a part): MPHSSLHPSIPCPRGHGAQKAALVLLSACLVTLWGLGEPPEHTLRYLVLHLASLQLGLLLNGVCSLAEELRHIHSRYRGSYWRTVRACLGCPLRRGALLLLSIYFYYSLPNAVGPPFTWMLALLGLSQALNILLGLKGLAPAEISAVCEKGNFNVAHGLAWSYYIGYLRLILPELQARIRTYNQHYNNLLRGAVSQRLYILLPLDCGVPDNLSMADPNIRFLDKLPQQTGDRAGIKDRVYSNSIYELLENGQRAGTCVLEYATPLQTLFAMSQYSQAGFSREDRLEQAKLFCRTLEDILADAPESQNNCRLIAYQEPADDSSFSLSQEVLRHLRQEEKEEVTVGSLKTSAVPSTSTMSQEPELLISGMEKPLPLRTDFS
On to `COc1cc(F)c(CN2C(=O)N(C)[C@@H](C)c3ccc(C(=O)NCc4c(F)cc(F)cc4F)cc32)c(F)c1` [Example 79, (S)-1-(2,6-Difluoro-4-methoxybenzyl)-3,4-dimethyl-2-oxo-N-(2,4,6-trifluorobenzyl)-1,2,3,4-tetrahydroquinazoline-7-carboxamide], for which the EC50 was less than 1000 nM.

Turning to `CC1c2ccc(C(=O)NCc3c(F)cc(F)cc3F)cc2N(Cc2c(F)cccc2OCC(=O)O)C(=O)N1C` (stereo not drawn) [Example 234, 2-(2-((3,4-dimethyl-2-oxo-7-((2,4,6-trifluorobenzyl)carbamoyl)-3,4-dihydroquinazolin-1(2H)-yl)methyl)-3-fluorophenoxy)acetic acid], the EC50 is greater than 10000 nM.

For `CC1c2ccc(C(=O)NCc3c(F)cc(F)cc3F)cc2N(Cc2c(F)cccc2OCCO)C(=O)N1C` (stereo not drawn) [Example 236, 1-(2-fluoro-6-(2-hydroxyethoxy)benzyl)-3,4-dimethyl-2-oxo-N-(2,4,6-trifluorobenzyl)-1,2,3,4-tetrahydroquinazoline-7-carboxamide], the EC50 was less than 1000 nM.

In the case of `CC1c2ccc(C(=O)NCc3ccc(OCC(=O)O)cc3)cc2N(Cc2c(F)cccc2Cl)C(=O)N1C` (stereo not drawn) [Example 240, 2-(4-((1-(2-chloro-6-fluorobenzyl)-3,4-dimethyl-2-oxo-1,2,3,4-tetrahydroquinazoline-7-carboxamido)methyl)phenoxy)acetic acid], the EC50 was greater than 10000 nM.

For the compound `C[C@H]1c2ccc(C(=O)NCc3c(F)cc(F)cc3F)cc2N(Cc2c(OCC(=O)O)ccc(F)c2F)C(=O)N1C` [Example 244, (S)-2-(2-((3,4-dimethyl-2-oxo-7-((2,4,6-trifluorobenzyl)carbamoyl)-3,4-dihydroquinazolin-1(2H)-yl)methyl)-3,4-difluorophenoxy)acetic acid], the EC50 is less than 1000 nM.

For `COc1cccc(F)c1CNC(=O)c1ccc2c(c1)N(Cc1c(F)cccc1Cl)C(=O)N(C)[C@H]2C` [Example 245, (S)-1-(2-chloro-6-fluorobenzyl)-N-(2-fluoro-6-methoxybenzyl)-3,4-dimethyl-2-oxo-1,2,3,4-tetrahydroquinazoline-7-carboxamide], the EC50 lay within 1000 to 10000 nM.

Consider `COc1cc(F)ccc1CNC(=O)c1ccc2c(c1)N(Cc1c(F)cccc1Cl)C(=O)N(C)[C@H]2C` [Example 247, (S)-1-(2-chloro-6-fluorobenzyl)-N-(4-fluoro-2-methoxybenzyl)-3,4-dimethyl-2-oxo-1,2,3,4-tetrahydroquinazoline-7-carboxamide], for which the EC50 fell in the range of 1000 to 10000 nM.

Consider `COc1cc(F)cc(CNC(=O)c2ccc3c(c2)N(Cc2c(F)cccc2Cl)C(=O)N(C)[C@H]3C)c1` [Example 248, (S)-1-(2-chloro-6-fluorobenzyl)-N-(3-fluoro-5-methoxybenzyl)-3,4-dimethyl-2-oxo-1,2,3,4-tetrahydroquinazoline-7-carboxamide], for which the EC50 is 1000 to 10000 nM.

Consider `COc1cccc(CNC(=O)c2ccc3c(c2)N(Cc2c(F)cccc2Cl)C(=O)N(C)[C@H]3C)c1F` [Example 249, (S)-1-(2-chloro-6-fluorobenzyl)-N-(2-fluoro-3-methoxybenzyl)-3,4-dimethyl-2-oxo-1,2,3,4-tetrahydroquinazoline-7-carboxamide], for which the EC50 is 1000 to 10000 nM.

Turning to `C[C@H]1c2ccc(C(=O)NCc3cc(O)cc(F)c3)cc2N(Cc2c(F)cccc2Cl)C(=O)N1C` [Example 250, (S)-1-(2-chloro-6-fluorobenzyl)-N-(3-fluoro-5-hydroxybenzyl)-3,4-dimethyl-2-oxo-1,2,3,4-tetrahydroquinazoline-7-carboxamide], the EC50 was less than 1000 nM.

With `C[C@H]1c2ccc(C(=O)NCc3c(O)cccc3F)cc2N(Cc2c(F)cccc2Cl)C(=O)N1C` [Example 251, (S)-1-(2-chloro-6-fluorobenzyl)-N-(2-fluoro-6-hydroxybenzyl)-3,4-dimethyl-2-oxo-1,2,3,4-tetrahydroquinazoline-7-carboxamide], the EC50 fell in the range of 1000 to 10000 nM.

For the compound `C[C@H]1c2ccc(C(=O)NCc3ccc(F)cc3O)cc2N(Cc2c(F)cccc2Cl)C(=O)N1C` [Example 253, (S)-1-(2-chloro-6-fluorobenzyl)-N-(4-fluoro-2-hydroxybenzyl)-3,4-dimethyl-2-oxo-1,2,3,4-tetrahydroquinazoline-7-carboxamide], the concentration giving a half-maximal response (EC50) was 1000 to 10000 nM.

Consider `C[C@H]1c2ccc(C(=O)NCc3cc(F)cc(OCCO)c3)cc2N(Cc2c(F)cccc2Cl)C(=O)N1C` [Example 266, (S)-1-(2-chloro-6-fluorobenzyl)-N-(3-fluoro-5-(2-hydroxyethoxy)benzyl)-3,4-dimethyl-2-oxo-1,2,3,4-tetrahydroquinazoline-7-carboxamide], for which the EC50 is greater than 10000 nM.

Regarding `C[C@H]1c2ccc(C(=O)NCc3cccc(O)c3F)cc2N(Cc2c(F)cccc2Cl)C(=O)N1C` [Example 267, (S)-1-(2-chloro-6-fluorobenzyl)-N-(2-fluoro-3-hydroxybenzyl)-3,4-dimethyl-2-oxo-1,2,3,4-tetrahydroquinazoline-7-carboxamide], the EC50 was less than 1000 nM.

For `C[C@H]1c2ccc(C(=O)NCc3c(F)cc(F)cc3F)cc2N(Cc2c(F)cccc2NC(=O)CN)C(=O)N1C` [Example 272, (S)-1-(2-(2-aminoacetamido)-6-fluorobenzyl)-3,4-dimethyl-2-oxo-N-(2,4,6-trifluorobenzyl)-1,2,3,4-tetrahydroquinazoline-7-carboxamide dihydrochloride], the EC50 fell in the range of 1000 to 10000 nM.

In the case of `C[C@H]1c2ccc(C(=O)NCc3c(F)cc(F)cc3F)cc2N(Cc2cc(O)c(O)cc2F)C(=O)N1C` [Example 274, (S)-1-(2-fluoro-4,5-dihydroxybenzyl)-3,4-dimethyl-2-oxo-N-(2,4,6-trifluorobenzyl)-1,2,3,4-tetrahydroquinazoline-7-carboxamide], the EC50 was in the range of 1000 to 10000 nM.

Take `C[C@H]1c2ccc(C(=O)NCc3cccc(OCCO)c3F)cc2N(Cc2c(F)cccc2Cl)C(=O)N1C` [Example 276, (S)-1-(2-chloro-6-fluorobenzyl)-N-(2-fluoro-3-(2-hydroxyethoxy)benzyl)-3,4-dimethyl-2-oxo-1,2,3,4-tetrahydroquinazoline-7-carboxamide]: the EC50 was greater than 10000 nM.

Regarding `C[C@H]1c2ccc(C(=O)NCc3c(F)cc(F)cc3F)cc2N(Cc2c(F)cc(OCC(=O)O)cc2F)C(=O)N1C` [Example 277, (S)-2-(4-((3,4-dimethyl-2-oxo-7-((2,4,6-trifluorobenzyl)carbamoyl)-3,4-dihydroquinazolin-1(2H)-yl)methyl)-3,5-difluorophenoxy)acetic acid], the EC50 is greater than 10000 nM.

`C[C@H]1c2ccc(C(=O)NCc3c(F)cc(F)cc3F)cc2N(Cc2c(F)cccc2NCCCO)C(=O)N1C` [Example 278, (S)-1-(2-fluoro-6-((3-hydroxypropyl)amino)benzyl)-3,4-dimethyl-2-oxo-N-(2,4,6-trifluorobenzyl)-1,2,3,4-tetrahydroquinazoline-7-carboxamide]: the EC50 was less than 1000 nM.

`COc1cccc(CN2C(=O)N(C)[C@@H](C)c3ccc(C(=O)NCc4c(F)cc(F)cc4F)cc32)c1F` [Example 279, (S)-1-(2-fluoro-3-methoxybenzyl)-3,4-dimethyl-2-oxo-N-(2,4,6-trifluorobenzyl)-1,2,3,4-tetrahydroquinazoline-7-carboxamide]: the EC50 is less than 1000 nM.

Take `C[C@H]1c2ccc(C(=O)NCc3c(F)cc(F)cc3F)cc2N(Cc2c(F)cc(OCCCN)cc2F)C(=O)N1C` [Example 280, (S)-1-(4-(3-aminopropoxy)-2,6-difluorobenzyl)-3,4-dimethyl-2-oxo-N-(2,4,6-trifluorobenzyl)-1,2,3,4-tetrahydroquinazoline-7-carboxamide]: the EC50 was less than 1000 nM.

Consider `C[C@H]1c2ccc(C(=O)NCc3ccc(F)cc3OCCO)cc2N(Cc2c(F)cccc2Cl)C(=O)N1C` [Example 284, (S)-1-(2-chloro-6-fluorobenzyl)-N-(4-fluoro-2-(2-hydroxyethoxy)benzyl)-3,4-dimethyl-2-oxo-1,2,3,4-tetrahydroquinazoline-7-carboxamide], for which the EC50 was greater than 10000 nM.

For the compound `C[C@H]1c2ccc(C(=O)NCc3c(F)cc(F)cc3F)cc2N(Cc2c(Cl)c[nH]c(=O)c2F)C(=O)N1C` [Example 287, (S)-1-((5-chloro-3-fluoro-2-oxo-1,2-dihydropyridin-4-yl)methyl)-3,4-dimethyl-2-oxo-N-(2,4,6-trifluorobenzyl)-1,2,3,4-tetrahydroquinazoline-7-carboxamide], the EC50 was greater than 10000 nM.

For `C[C@H]1c2ccc(C(=O)NCc3c(F)cc(F)cc3F)cc2N(Cc2c(Cl)cn(C)c(=O)c2F)C(=O)N1C` [Example 288, (S)-1-((5-chloro-3-fluoro-1-methyl-2-oxo-1,2-dihydropyridin-4-yl)methyl)3,4-dimethyl-2-oxo-N-(2,4,6-trifluorobenzyl)-1,2,3,4-tetrahydroquinazoline-7-carboxamide], the EC50 is 1000 to 10000 nM.

Turning to `C[C@H]1c2ccc(C(=O)NCc3c(F)cc(F)cc3F)cc2N(Cc2c(F)cc(OCCN)cc2F)C(=O)N1C` [Example 292, (S)-1-(4-(2-aminoethoxy)-2,6-difluorobenzyl)-3,4-dimethyl-2-oxo-N-(2,4,6-trifluorobenzyl)-1,2,3,4-tetrahydroquinazoline-7-carboxamide hydrochloride], the EC50 is less than 1000 nM.

With `C[C@H]1c2ccc(C(=O)NCc3c(F)cc(F)cc3F)cc2N(Cc2c(Cl)cn(CCO)c(=O)c2F)C(=O)N1C` [Example 297, (S)-1-((5-chloro-3-fluoro-1-(2-hydroxyethyl)-2-oxo-1,2-dihydropyridin-4-yl)methyl)-3,4-dimethyl-2-oxo-N-(2,4,6-trifluorobenzyl)-1,2,3,4-tetrahydroquinazoline-7-carboxamide], the EC50 was greater than 10000 nM.

Source of the values: patent US11571423B2, “Small molecule modulators of human sting” (Curadev Pharma Limited, priority 2017, dated 2023).
